Laboratory results: patent US20120021434A1, “METHOD FOR TREATING B CELL REGULATED AUTOIMMUNE DISORDERS” (Synta Pharmaceuticals Corp., priority 2005, published 2012)

Legend:
Type in all cases: cell-based
p50 [1] = assay: Western blot of THP-1 nuclear extracts: p50; settings: IFN-γ plus LPS or IFN-γ plus SAC, remained above non-stimulated levels
Experimental: (§1) The THP-1 cell, Jurkat cell and RAW264.7 cell line were obtained from American Type Culture Collection (Manassas, Va.). The THP-1 Jurkat cells were cultured in RPMI 1640 (ATCC, Manassas, Va.), supplemented with 10% FCS (ATCC, Manassas, Va.), and 1% penicillin/Streptomycin (Gibco-BRL, New York, N.Y.). The RAW264.7 cells were cultured in DMEM (ATCC, Manassas, Va.) supplemented with 10% FCS (ATCC, Manassas, Va.), and 1% penicillin/Streptomycin (Gibco-BRL, New York, N.Y.). The cells were stimulated with human or murine recombinant IFNγ (100 ng/ml) for 10 h followed by LPS (1 μg/ml) or SAC (0.025%) CpG ([…]) in the presence or absence of Compound 50 at different concentrations for an additional incubation.
THP-1 cells were suspended in 20 volumes of buffer A containing 10 mM KCl, 10 mM HEPES (pH 7.9), 1 mM MgCl2, 1 mM dithiothreitol (DTT), 0.1% Nonidet p40 (NP-40), and 0.5 mM phenylmethylsulfonyl fluoride (PMSF) and homogenized and centrifuged at 10,000 rpm at 4C afor 5 min. […]
(§2) Of the transcription factors that have been analyzed, two factors, ICSBP and c-Rel, seem to be affected by Compound 4/Compound 50 treatment. […]

p65 = assay: Nuclear p65 in PMA+ionomycin stimulated Jurkat T cells (immunoblot); settings: 100 nM
IκBβ = assay: Inducible degradation of IκBβ (Western blot and FACS); settings: IFN-γ/LPS or IFN-γ/SAC, 500 nM, 30 min and 2 hrs
Experimental: IκB degradation is one of the steps in the signaling pathway of NF-κB dependent genes. The activity of Compound 50 in inducible degradation of IκBα and IκBβ was investigated in THP-1 cells using Western blot and FACS analysis. […] Similar results were observed from the Compound 50 pre-treatment samples in which Compound 50 was added 30 min before stimulation.

p50 [2] = assay: Nuclear p50 in PMA+ionomycin stimulated Jurkat T cells (immunoblot); settings: 100 nM
IL-2 = assay: Induction of IL-2 in PMA+ionomycin stimulated Jurkat T cells; settings: previously shown
c-Rel = biological target: T1, c-Rel (Homo sapiens, UniProt Q04864); assay: Western blot of THP-1 nuclear extracts: c-Rel
T1 construct: a western blot assay of THP1 nuclear c-Rel, p50 and p65 proteins was carried out; endogenous in cells; host or cells: THP-1; Jurkat
T1 sequence (Q04864 1-619): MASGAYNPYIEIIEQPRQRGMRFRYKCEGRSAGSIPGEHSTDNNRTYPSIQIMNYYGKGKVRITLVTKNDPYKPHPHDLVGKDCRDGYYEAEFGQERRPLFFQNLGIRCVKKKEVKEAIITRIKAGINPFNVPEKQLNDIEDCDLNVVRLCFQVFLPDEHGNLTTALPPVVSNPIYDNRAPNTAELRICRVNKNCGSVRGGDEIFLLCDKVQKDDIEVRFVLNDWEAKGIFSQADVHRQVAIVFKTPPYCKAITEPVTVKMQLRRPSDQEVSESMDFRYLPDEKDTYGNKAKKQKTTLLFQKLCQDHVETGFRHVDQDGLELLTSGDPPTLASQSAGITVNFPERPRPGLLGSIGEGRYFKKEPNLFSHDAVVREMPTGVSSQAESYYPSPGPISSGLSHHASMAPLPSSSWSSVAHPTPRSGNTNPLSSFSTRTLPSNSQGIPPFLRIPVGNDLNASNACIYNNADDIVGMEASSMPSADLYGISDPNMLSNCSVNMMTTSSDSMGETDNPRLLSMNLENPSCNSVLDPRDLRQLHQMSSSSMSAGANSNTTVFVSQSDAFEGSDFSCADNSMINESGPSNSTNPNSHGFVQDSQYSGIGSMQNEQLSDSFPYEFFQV
Experimental: as §1
THP-1 cells were suspended in 20 volumes of buffer A containing 10 mM KCl, 10 mM HEPES (pH 7.9), 1 mM MgCl2, 1 mM dithiothreitol (DTT), 0.1% Nonidet p40 (NP-40), and 0.5 mM phenylmethylsulfonyl fluoride (PMSF) and homogenized and centrifuged at 10,000 rpm at 4C afor 5 min. Nuclear pellets were then suspended in buffer C containing 400 mM NaCl, 20 mM HEPES 9, pH 7.9), 15 mM MgCl2, 0.2 mM EDTA, 1 mM DTT, 25% glycerol, 1 mM PMSF, and 10 ug of leupeptin, 20 ug of pepstatin, and 10 ug/ml antipain, incubated for 30 min at 4C, and centrifuged at 14,000 rpm for 20 min. The supernatants were dialyzed against buffer D containing 100 mM NaCl, 20 mM HEPES (pH 7.9), 20% glycerol, 1 mM PMSF, and 1 mM DTT.
The 10% SDS Polyacrylamide gels (Inveitrogen) were transferred to Pure Nitrocellulose membrane (BioRed, Hercules, Calif.). The membranes were blocked with 5% milk in TBST buffer and incubated with anti-c-Rel, anti-p65, anti-p50, anti-ICSBP or anti-PU-1 antibody (all the antibodies were purchased from Santa Cruz) at a dilution of 1:500 for 1 h at room temperature or overnight at 4C. […]
as §2

Cc1cccc(/C=N/Nc2cc(N3CCOCC3)nc(OCCc3ccccn3)n2)c1 [Compound 50, N-(3-Methyl-benzylidene)-N′-[6-morpholin-4-yl-2-(2-pyridin-2-yl-ethoxy)-pyrimidin-4-yl]-hydrazine]
nuclear p50 levels (p50 [1]): decreased slightly | nuclear p65 levels (p65): unchanged | amount of IκBβ in the cytoplasm, with vs without compound (IκBβ): no significant difference | nuclear levels of p50 (p50 [2]): slightly reduced | induction of the c-Rel dependent cytokine IL-2 (IL-2): impairs | level of nuclear c-Rel (c-Rel; THP-1 nuclear extracts, IFN-γ plus LPS or IFN-γ plus SAC, post-treatment level equal to or below non-stimulated level): significantly reduced | transcription factor c-Rel affected by treatment (c-Rel; of the transcription factors analyzed): affected
